Measured values as given in patent publication US11530207B2, “Compounds for the treatment of cancer” (SKYHAWK THERAPEUTICS, INC., priority 2018, dated 2022).

Tested on: A673 cells
Assay: Dose-response cell proliferation assay in A673 cells (crystal violet)
Type: cell-based
Conditions: Homo sapiens, A673 cells, 10,000 cells per well, 72 h treatment
Protocol: Small molecule splicing modulators were tested in a dose-response assay using A673 cells. A673 cells were first plated in 96-well plastic tissue culture plates (10,000 cells per well). The cells were treated with vehicle alone (DMSO), or increasing concentrations of SMSM compounds for 72 h. Following treatment, cell proliferation was determined using a crystal violet assay. The relative cell proliferation at each concentration was determined.

## CNC(=O)/C=C/c1cc(O)c(-c2ccc(N3C[C@H]4CNC[C@H]4C3)nn2)cc1F [SMSM 1, (E)-3-(2-fluoro-4-(6-((3aR,6aS)-hexahydropyrrolo[3,4-c]pyrrol-2(1H)-yl)pyridazin-3-yl)-5-hydroxyphenyl)-N-methylacrylamide]
  IC50: 91 nM

## CNC(=O)/C=C/c1ccc(-c2ccc(N3C[C@H]4CNC[C@H]4C3)nn2)c(O)c1 [SMSM 2, (E)-3-(4-(6-((3aR,6aS)-hexahydropyrrolo[3,4-c]pyrrol-2(1H)-yl)pyridazin-3-yl)-3-hydroxyphenyl)-N-methylacrylamide]
  IC50: 9 nM

## CNC(=O)/C=C/c1ccc(-c2ccc(N(C)[C@@H]3C[C@H]4CC[C@@H](C3)N4)nn2)c(O)c1 [SMSM 3, (E)-3-(4-(6-(((1R,3s,5S)-8-azabicyclo[3.2.1]octan-3-yl)(methyl)amino)pyridazin-3-yl)-3-hydroxyphenyl)-N-methylacrylamide]
  IC50: 8.3 nM

## CNC(=O)/C=C/c1ccc(-c2ccc(O[C@@H]3C[C@H]4CC[C@@H](C3)N4)nn2)c(O)c1 [SMSM 4, (E)-3-(4-(6-(((1R,3s,5S)-8-azabicyclo[3.2.1]octan-3-yl)oxy)pyridazin-3-yl)-3-hydroxyphenyl)-N-methylacrylamide]
  IC50: 7 nM

## CN(C(=O)/C=C/c1ccc(-c2ccc(N(C)[C@@H]3C[C@H]4CCC[C@@H](C3)N4)nn2)c(O)c1)C1CC1 [SMSM 5, (E)-3-(4-(6-(((1R,3s,5S)-9-azabicyclo[3.3.1]nonan-3-yl)(methyl)amino)pyridazin-3-yl)-3-hydroxyphenyl)-N-cyclopropyl-N-methylacrylamide]
  IC50: 554 nM

## CNC(=O)/C=C/c1ccc(-c2ccc(N(C)[C@@H]3C[C@H]4CCC[C@@H](C3)N4)nn2)c(O)c1 [SMSM 6, (E)-3-(4-(6-(((1R,3s,5S)-9-azabicyclo[3.3.1]nonan-3-yl)(methyl)amino)pyridazin-3-yl)-3-hydroxyphenyl)-N-methylacrylamide]
  IC50: 3120 nM

## CN(C)C(=O)/C=C/c1ccc(-c2ccc(N(C)[C@@H]3C[C@H]4CCC[C@@H](C3)N4)nn2)c(O)c1 [SMSM 7, (E)-3-(4-(6-(((1R,3s,5S)-9-azabicyclo[3.3.1]nonan-3-yl)(methyl)amino)pyridazin-3-yl)-3-hydroxyphenyl)-N,N-dimethylacrylamide]
  IC50: 3.7 nM

## CNC(=O)/C=C/c1cc(O)c(-c2ccc(N(C)[C@@H]3C[C@H]4CCC[C@@H](C3)N4)nn2)cc1F [SMSM 8, (E)-3-(4-(6-(((1R,3s,5S)-9-azabicyclo[3.3.1]nonan-3-yl)(methyl)amino)pyridazin-3-yl)-2-fluoro-5-hydroxyphenyl)-N-methylacrylamide]
  IC50: 20 nM

## CNC(=O)/C=C/c1cc(O)c(-c2ccc(N(C)[C@H]3C[C@]4(C)CC[C@](C)(C3)N4)nn2)cc1F [SMSM 9]
  IC50: 1950 nM

## CNC(=O)/C=C/c1ccc(-c2ccc(N(C)[C@H]3C[C@]4(C)CC[C@](C)(C3)N4)nn2)c(O)c1 [SMSM 10, (E)-3-(4-(6-(((1R,3s,5S)-1,5-dimethyl-8-azabicyclo[3.2.1]octan-3-yl)(methyl)amino)pyridazin-3-yl)-3-hydroxyphenyl)-N-methylacrylamide]
  IC50: 1580 nM

## CNC(=O)/C=C/c1cc(O)c(-c2ccc(N(C3CC3)[C@H]3C[C@]4(C)CC[C@](C)(C3)N4)nn2)cc1F [SMSM 11, (E)-3-(4-(6-(cyclopropyl((1R,3s,5 S)-1,5-dimethyl-8-azabicyclo[3.2.1]octan-3-yl)amino)pyridazin-3-yl)-2-fluoro-5-hydroxyphenyl)-N-methylacrylamide]
  IC50: 1390 nM

## CN(c1ccc(-c2ccc(/C=C/c3nnn[nH]3)cc2O)nn1)[C@H]1C[C@]2(C)CC[C@](C)(C1)N2 [SMSM 12, 5-((E)-2-(1H-tetrazol-5-yl)vinyl)-2-(6-(((1R,3s,5S)-1,5-dimethyl-8-azabicyclo[3.2.1]octan-3-yl)(methyl)amino)pyridazin-3-yl)phenol]
  IC50: > 1000 nM

## CNC(=O)/C=C/c1cc(O)c(-c2ccc(N(C3CC3)[C@H]3C[C@]4(C)CCC[C@](C)(C3)N4)nn2)cc1F [SMSM 13, (E)-3-(4-(6-(cyclopropyl((lR,3s,5 S)-1,5-dimethyl-9-azabicyclo[3.3.1]nonan-3-yl)amino)pyridazin-3-yl)-2-fluoro-5-hydroxyphenyl)-N-methylacrylamide]
  IC50: > 1000 nM

## CNC(=O)/C=C/c1ccc(-c2ccc(N(C)[C@H]3C[C@]4(C)CCC[C@](C)(C3)N4)nn2)c(O)c1 [SMSM 14, (E)-3-(4-(6-(((1R,3s,5S)-1,5-dimethyl-9-azabicyclo[3.3.1]nonan-3-yl)(methyl)amino)pyridazin-3-yl)-3-hydroxyphenyl)-N-methylacrylamide]
  IC50: 1.6 nM

## CNC(=O)/C=C/c1cc(O)c(-c2ccc(N(C)[C@H]3C[C@]4(C)CCC[C@](C)(C3)N4)nn2)cc1F [SMSM 15, (E)-3-(4-(6-(((1R,3s,5S)-1,5-dimethyl-9-azabicyclo[3.3.1]nonan-3-yl)(methyl)amino)pyridazin-3-yl)-2-fluoro-5-hydroxyphenyl)-N-methylacrylamide]
  IC50: 0.7 nM

## CNC(=O)/C=C/c1ccc(-c2ccc(N(C)C3CC(C)(C)NC(C)(C)C3)nn2)c(O)c1 [SMSM 16, (E)-3-(3-hydroxy-4-(6-(methyl(2,2,6,6-tetramethylpiperidin-4-yl)amino)pyridazin-3-yl)phenyl)-N-methylacrylamide]
  IC50: 0.2 nM

## CNC(=O)/C=C/c1cc(O)c(-c2ccc(N3CCC(N)CC3)nn2)cc1F [SMSM 17, (E)-3-(4-(6-(4-aminopiperidin-1-yl)pyridazin-3-yl)-2-fluoro-5-hydroxyphenyl)-N-methylacrylamide]
  IC50: 0.3 nM

## CNC(=O)/C=C/c1ccc(-c2ccc(N3CCC(N)CC3)nn2)c(O)c1 [SMSM 18, (E)-3-(4-(6-(4-aminopiperidin-1-yl)pyridazin-3-yl)-3-hydroxyphenyl)-N-methylacrylamide]
  IC50: > 1000 nM

## CN(C)C(=O)/C=C/c1ccc(-c2ccc(O[C@@H]3C[C@H]4CCC[C@@H](C3)N4)nn2)c(O)c1 [SMSM 19]
  IC50: > 1000 nM

## CNC(=O)/C=C/c1ccc(-c2ccc(O[C@@H]3C[C@H]4CCC[C@@H](C3)N4)nn2)c(O)c1 [SMSM 20, (E)-3-(4-(6-(((1R,3s,5S)-9-azabicyclo[3.3.1]nonan-3-yl)ypoxy)pyridazin-3-yl)-3-hydroxyphenyl)-N-methylacrylamide]
  IC50: 793 nM

## CNC(=O)/C=C/c1ccc(-c2ccc(O[C@H]3C[C@H]4C[C@@H]3CN4)nn2)c(O)c1 [SMSM 21]
  IC50: 369 nM

## CNC(=O)/C=C/c1ccc(-c2ccc(O[C@@H]3C[C@@H]4C[C@H]3CN4)nn2)c(O)c1 [SMSM 22, (E)-3-(4-(6-(((1S,4S,5R)-2-azabicyclo[2.2.1]heptan-5-yl)oxy)pyridazin-3-yl)-3-hydroxyphenyl)-N-methylacrylamide]
  IC50: 330 nM

## CNC(=O)/C=C/c1ccc(-c2ccc(S[C@@H]3C[C@H]4CC[C@@H](C3)N4)nn2)c(O)c1 [SMSM 23, (E)-3-(4-(6-(((1R,3s,5S)-8-azabicyclo[3.2.1]octan-3-yl)thio)pyridazin-3-yl)-3-hydroxyphenyl)-N-methylacrylamide]
  IC50: 201 nM
